{
  "source": "patent US20030044413A1",
  "about": "“Methods of limiting apoptosis of cells” (Regents of the University of Minnesota, priority 1998, published 2003)",
  "key": {"[1]": {"tested_on": "Bax", "experiment": "Western blot, liver of bile acid fed rats: Bax", "type": "in vivo, rat", "settings": "DCA feeding", "protocol": "Animals and Diets. Male 160-175 g Sprague-Dawley rats (Sprague-Dawley, Indianapolis, Ind.), were maintained on a 12 h light-dark cycle and fed standard laboratory chow ad libitum for 3 days. The animals were then transferred to metabolic cages and fed diets of standard laboratory chow supplemented with either no bile acid or 0.4% (wt/wt) DCA, 0.4% UDCA, or a combination of DCA+UDCA (Bio-Serv, Frenchtown, N.J.). On day 10, the animals were sacrificed by exsanguination under ether anesthesia between 9 a.m. and 11 a.m. The livers were removed, rinsed in normal saline, and flash-frozen in liquid nitrogen until western blot analyses of apoptosis-related proteins were performed. All animals received humane care in compliance with the Guide for the Care and Use of Laboratory Animals, prepared by the National Academy of Sciences (NIH Publication No. 86-23, revised 1985).\nWestern Blot Analysis. Cytoplasmic proteins were isolated from rat liver tissue as described previously (Trembley et al., Cell Growth & Differ., 7, 903-916 (1996)). […] Cytoplasmic and mitochondrial protein concentrations were determined using the Bio-Rad protein assay (Bio-Rad Laboratories). […]\nDensitometry. […] Quantitation of the autoradiograms was performed using the NIH Image 1.4 densitometric analysis program."}, "[2]": {"tested_on": "hepatocytes, HuH-7, Hep G2 and Saos-2 cells", "experiment": "FACS analysis of ΔΨm and ROS, summary over all cell types", "type": "cell-based", "settings": "coadministration of UDCA with the inducers, range over cell types", "protocol": "A ΔΨm and ROS measurement. ΔΨm and ROS production were measured by FACScan (Becton Dickinson) analysis. Freshly isolated rat hepatocytes were cultured for 3 h as described above and then incubated with William's E medium supplemented with either 100 μM DCA, 100 μM UDCA, equal molar amounts of both, or no bile acid (control), for 6 h. Rat hepatocytes were also cultured with either 1% ethanol, 100 μM UDCA, ethanol+UDCA, or no addition (control) for 4 h. HuH-7 cells, Hep G2 cells, and human osteogenic sarcoma Saos-2 cells were incubated with TGF-β1, anti-Fas antibody or okadaic acid, respectively, for 48 h under the same conditions as outlined above. For combination studies, cells were pretreated with UDCA or hyodeoxycholic acid for 60 min prior to addition of DCA, ethanol, TGF-β1, anti-Fas antibody or okadaic acid. Aliquots of 1.0×10^6 cells were incubated for 15 min at 37° C. with 50 nM 3,3′-dihexyloxacarbocyanine iodide [DiOC6(3)], 2 μM dihydroethidium (HE), or 5 μM 2′,7′-dichlorofluorescin diacetate (H2DCFDA; Molecular Probes, Inc. Eugene, Oreg.) and analyzed by cytofluorometry (Cathcart et al., Anal. Biochem., 134, 111-116 (1983); Zamzami et al., J. Exp. Med., 181, 1661-1672 (1 995); Carter et al., J. Leukocyte Biol., 55, 253-258 (1994))."}, "[3]": {"tested_on": "astrocytes", "experiment": "Unconjugated bilirubin-induced apoptosis in astrocytes", "type": "cell-based, rat", "settings": "coincubation of UCB with UDCA"}, "[4]": {"experiment": "Nuclear bile acid concentration in livers of fed rats", "type": "in vivo, rat"}},
  "data": [
    {"smiles": "C[C@H](CCC(=O)O)[C@H]1CC[C@H]2[C@@H]3CC[C@@H]4C[C@H](O)CC[C@]4(C)[C@H]3C[C@H](O)[C@]12C", "note": "[DCA, deoxycholic acid]", "values": [
      {"measurement": "increase in mitochondrial-associated Bax", "setting": "[1]", "value": 4.5, "unit": "fold"}
    ]},
    {"smiles": "C[C@H](CCC(=O)O)[C@H]1CC[C@H]2[C@@H]3[C@@H](O)C[C@@H]4C[C@H](O)CC[C@]4(C)[C@H]3CC[C@]12C", "note": "[UDCA, ursodeoxycholic acid]", "values": [
      {"measurement": "decrease in superoxide anion production", "setting": "[2]", "value": "55-93%"},
      {"measurement": "inhibition of increase in other ROS", "setting": "[2]", "value": "39-65%"},
      {"measurement": "inhibition of ΔΨm disruption", "setting": "[2]", "value": "21-63%"},
      {"measurement": "inhibition of apoptosis", "setting": "[3]", "value": "over 50%"},
      {"measurement": "share of the total nuclear bile acid concentration", "setting": "[4]; UDCA feeding", "value": 91.4, "unit": "%"},
      {"measurement": "concentration in nuclei relative to cytoplasmic levels", "setting": "[4]; livers from control and DCA fed rats", "value": "> 20", "unit": "fold"}
    ]}
  ]
}
